According to article PMC11251039, “Harnessing cholesterol uptake of malaria parasites for therapeutic applications” (EMBO Molecular Medicine, 2024):
“And” between values parts separate entries of the source, which are not always exact repeats. Equal values may be shown once. Read-outs that look alike come from different tables or passages of the source.

Columns and labels:
[1] = system: asexual P. falciparum CAM3.IIREV (Susceptible); test: P. falciparum asexual growth inhibition assay, revertant strain; assay type: cell-based; details: Plasmodium falciparum, 72 h, read-out: IC50, P. falciparum asexual growth inhibition
Description: (§1) P. falciparum asexual parasite assays commenced with ring-stage parasites at 1% parasitaemia and 1% haematocrit. 200 nM chloroquine (Sigma C6628) or artesunate (Sigma A3731) was used as a no-growth control. DNA replication (indicating growth) was measured at the specified time using SYBR Safe DNA Gel Stain (Invitrogen 33102) and a fluorescence microplate reader (Smilkstein et al, [2004]; Spry et al, [2013]).
(§2) Appendix Fraser/Curtis et al.
(§3) Growth and Viability Inhibition Assays:
(§4) Plasmodium falciparum Growth Inhibition Assays:
(§5) P. falciparum parasites were maintained under routine culture conditions in red blood cells and RPMI 1640-Hepes with Glutamax, supplemented with 10 mM D-glucose, 480 μM hypoxanthine, 20 μg/mL gentamicin, 0.375% (w/v) AlbuMAXTM II (Thermo Fisher 11021029), and 2.5% v/v heat-inactivated human serum (17). Cultures were maintained at 37 °C […]
(§6) Growth inhibition was investigated according to methods described by Smilkstein et al. (19) with modifications by Spry et al. (20). […] 200 nM chloroquine (Sigma C6628) or artesunate (Sigma A3731) was used as a positive control to determine background fluorescence. The parasitaemia of a culture containing predominantly ring stage parasites was counted by Giemsa smear. […] Fluorescence was detected at 490 nm excitation/ 520 nm emission on a FLUOstar Optima fluorescence plate reader (BMG Labtech).

[2] = parameters: method as in Morris et al, 2011; details: ref Morris et al, 2011; cited from earlier work
[3] = system: P. falciparum CAM3.II ring stages (0–3 h post invasion); test: Plasmodium falciparum ring stage survival assay, resistant strain; assay type: cell-based; details: for Ring stage survival, individual data points (Figure 4C): CAM3.11, replicate experiments
Description: (§7) Following tight synchronisation using sorbitol and Percoll® floatation, ring stage CAM3.II and CAM3.IIREV parasites (0–3 h post invasion) at 1% parasitaemia and 2% haematocrit were incubated with 700 nM of compounds or solvent-only controls for exactly 6 h, before removing the drug, thoroughly washing in RPMI with HEPES, and returning to culture conditions for a further 66 h. Some cells were treated with 700 nM artesunate for 72 h as a no-growth control. DNA replication (indicating growth) was measured at the specified time using SYBR Safe DNA Stain. Microscope slide smears of each condition were stained with 10% v/v Giemsa and examined under a light microscope (×1000 magnification); with ‘viable’ (morphologically normal) and ‘non-viable’ (morphologically aberrant; vacuolated or pyknotic) parasites distinguished according to standard protocol (Witkowski et al, [2013]). Images were captured using a Leica ICC50 camera, with a resolution of 76 nm per pixel, and cropped from larger images using Fiji ImageJ.
as §2
(§8) Cells were detached from a flask using 0.25% Trypsin with 0.2 g/L EDTA (Sigma T4049) and washed with culture media containing no phenol red. Cells were incubated with a serial dilution of each compound, or media/DMSO alone. The protein synthesis inhibitor cycloheximide (Sigma 01810) at 10 µg/mL was used as a positive control to determine background absorbance. 5,000 cells were seeded in each well. After 96 hours, 0.45 mg/mL methylthiazolyldiphenyl-tetrazolium bromide (MTT; Sigma M2128) was added and incubated for a further two hours, before mixing 1.1:1 with 10% w/v sodium dodecyl sulfate (SDS) to solubilise crystals and freezing the plate at -18 °C to stop the assay. Plates were defrosted at room temperature and absorbance was read at 570 nm in an Infinite M1000 pro plate reader […]
(§9) Plasmodium falciparum Ring Stage Survival Assay
(§10) Ring stage survival assays were conducted according to standard protocols with some modifications (27, 28). CAM3.11 and CAM3.11REV parasites were sorbitol synchronised twice, 12 hours apart, and then incubated for a further 30 hours until the majority of the parasites were mature schizonts (with clearly separated nuclei). Pelleted RBCs were incubated at 37 °C with heparinised RPMI for 15 minutes, and then centrifuged over 75% Percoll® in PBS for 15 minutes at 1,000 g. Mature schizonts were collected, washed with warm RPMI, and cultured for exactly three hours with fresh uRBCs and culture media. After 3 hours, the cultures were sorbitol synchronised and incubated in duplicate with 700 nM of artesunate, PAYb076a, GGA5, HJB8a53, a DMSO solvent-only control or media alone for exactly six hours, before removing the drug, washing in RPMI, and returning to culture conditions. Samples of each cell suspension were transferred to a -18 °C freezer at the start of the assay (time = 0) or treated for the entire 72 hours with 700 nM artesunate to determine background fluorescence under no-growth conditions. After a further 66 hours of incubation (totalling 72 hours), cells were […]
(§11) resuspended, and a sample from each well was transferred to a fresh plate and frozen at -18 °C.
(§12) Microscope slide smears were made using the remaining cells and stained with 10% v/v Giemsa. Plates were thawed and SYBR Safe DNA Gel Stain (final concentration 1/10,000) diluted in lysis buffer (as above) was added for DNA detection at 490 nm excitation / 520 nm emission on a FLUOstar Optima fluorescence plate reader. Parasite proliferation and viability were also assessed using Giemsa-stained smears examined under a light microscope (1,000× magnification); with ‘viable’ and ‘non-viable’ (vacuolated or pyknotic) parasites distinguished according to standard protocol. Images were captured using a Leica ICC50 camera, with a resolution of 76 nm per pixel.
(§13) Growth inhibition data were normalised by subtracting background fluorescence, […]

[4] = system: P. falciparum CAM3.IIREV ring stages (0–3 h post invasion); test: Plasmodium falciparum ring stage survival assay, susceptible revertant strain; assay type: cell-based; details: for Parasite morphology in Giemsa-stained smears: 700 nM, 6 h treatment, 66 h further growth, CAM3.IIREV susceptible; for Ring stage survival, individual data points (Figure 4C): CAM3.11REV, replicate experiments
Description: as §7, §2, §8, §9, §10, §11, §12, §13

[5] = system: asexual P. falciparum 3D7 wild-type parasites; test: P. falciparum asexual growth inhibition assay (SYBR Safe DNA replication); assay type: cell-based, Plasmodium falciparum; details: Plasmodium falciparum, 72 h, 3D7 (Susceptible), read-out: IC50, P. falciparum asexual growth inhibition
Description: as §1, with “[2013]). […]” for “[2013]).”
as §3, §4, §5
wildtype parasites except for the ring stage survival assay, as specified. Cultures were synchronised with 5% w/v D-sorbitol (18).
Growth inhibition was investigated according to methods described by Smilkstein et al. (19) with modifications by Spry et al. (20). Compounds or solvent controls (DMSO, ethanol, or ethyl acetate) were serially diluted 2-fold across flat-bottom 96-well plates. Culture media without compound was used as a negative control. 200 nM chloroquine (Sigma C6628) or artesunate (Sigma A3731) was used as a positive control to determine background fluorescence. The parasitaemia of a culture containing predominantly ring stage parasites was counted by Giemsa smear. The parasitaemia was adjusted to 1% by addition of fresh uRBCs and added to the plate at a final haematocrit of 1%, with 200 µL per well. The plates were incubated at 37 °C under humid microaerophilic conditions. After 24, 48, or 72 hours, the plates were transferred to a -18 °C freezer to stop the assay and lyse cells. Plates were thawed and lysate was mixed 1:1 with SYBR Safe DNA Gel Stain (Invitrogen 33102) (final concentration 1/10,000) diluted in lysis buffer (20 mM TRIS, 5 mM EDTA, 0.008% w/v Saponin, 0.08% w/v Triton-X 100, pH 7.5). Fluorescence was detected at 490 nm excitation/ 520 nm emission on a FLUOstar Optima fluorescence plate reader (BMG Labtech).

[6] = system: asexual P. falciparum CAM3.II (Resistant); test: P. falciparum asexual growth inhibition assay, resistant strain; assay type: cell-based; details: Plasmodium falciparum, 72 h, read-out: IC50, P. falciparum asexual growth inhibition
Description: as §1, §2, §3, §4, §5, §6

[7] = 700 nM, 6 h treatment, 66 h further growth, CAM3.II resistant

Structure (SMILES) | IC50 [1] | Half-life in blood [2] | Proportion of resistant parasites surviving treatment (DNA replication) ([3]; 700 nM, 6 h treatment, 66 h further growth, CAM3.II) | Parasite morphology in Giemsa-stained smears [3, 7] | Ring stage survival, individual data points (Figure 4C) [3] | Parasite morphology in Giemsa-stained smears [4] | Ring stage survival, individual data points (Figure 4C) [4] | IC50 [5] | IC50 ([6]; CAM3.II (Resistant)) | Ring stage survival, individual data points (Figure 4C) ([3]; listed as GGA5) | Ring stage survival, individual data points (Figure 4C) ([4]; listed as GGA5) | Ring stage survival, growth [3, 7] | Ring stage survival, individual data points (Figure 4C) ([3]; listed as PAYb076a) | Ring stage survival, individual data points (Figure 4C) ([4]; listed as PAYb076a) | IC50 ([5]; 3D7, 72 h) | IC50 [6]
C[C@H]1[C@H](OC(=O)CCC(=O)O)O[C@@H]2O[C@@]3(C)CC[C@H]4[C@H](C)CC[C@@H]1[C@@]24OO3 [Artesunate, artesunate, reference compound] | 5.7 nM | 30 to 90 min | ~ 30% | a combination of morphologically normal parasites (green arrows) and morphologically aberrant pyknotic or vacuolated forms | 35.31 and 54.58 and 24.97 and 17.6 | only morphologically aberrant parasites were present | -6.969 and -6.239 and -6.353 and -8.044 | 6.7 nM | 6.7 nM |  |  |  |  |  |  | 
CC(C)OC(=O)CCC(=O)OC1OC2OC3(C)CCC4C(C)CCC(C1C)C24OO3 (stereo not drawn) [ART-link] |  |  |  | a combination of morphologically normal parasites (green arrows) and morphologically aberrant pyknotic or vacuolated forms |  | only morphologically aberrant parasites were present |  |  |  | 38.82 and -2.964 and -8.71 and 33.42 | -11.62 and -13.91 and -17.49 and -9.785 |  |  |  |  | 
CC1CCC2C(C)C(OC(=O)CCC(=O)OC3CCC4C5CC=C6CC(O)CCC6(C)C5CCC34C)OC3OC4(C)CCC1C32OO4 (stereo not drawn) [C-17-ART] | 11 nM |  |  | only aberrant, non-viable parasites were visible |  | only morphologically aberrant parasites were present |  |  |  |  |  | complete growth inhibition | 5.574 and -1.717 and 1.804 and -19.52 | -3.583 and -11.02 and -24.87 and -14.11 | 10.6 nM | 10.5 nM
